Experimental data reported in patent US20060189546A1, “Compounds for treating autoimmune and demyelinating diseases” (priority 2005, published 2006).

Test system: colorectal cancer cell lines (HT29 & HCT116)
Test: Microarray gene expression, cells grown with Symadex at the GI50 concentration
Format: cell-based, human
Source text: Two colorectal cancer cell lines (HT29 & HCT116) were chosen for study, whose behavior as rapidly proliferating invasive cells could be generalized to many other such cell types from different tissue origins. The two lines were immortalized colon carcinomas. Their gene expression patterns are known to mimic the behavior of neuro-enteric cells and therefore provide an appropriate simulation of the kinds of regulatory patterns that would be found in cells of similar epithelial or endothelial origin. Cells with these ontological roots are also suitable models for the kinds of autoimmune and inflammatory susceptibilities that are common in tissues of neuroenteric origin, such as those in which inflammatory bowel disease would present itself.
Frozen cell pellets were lysed in triplicate and total RNA isolated by purification over spin columns (all reagents from Ambion). After QC acceptance for purity, total RNA was converted to cRNA by linear amplification and 10 μg samples were applied to CodeLink Human Whole Genome Bioarrays (GE Healthcare and GenUs Biosystems).
Arrays were processed in triplicate and comparisons made after robust statistical analysis of replicate variability. […] False discovery rates and representation in standardized gene ontologies/pathways were then determined by filtering the “fold” changes in expression with open access software packages, EASE and GoMiner, and with Pathways Analysis (Ingenuity Systems). Functional annotations were then explored further in the MedMiner literature search environment.
A listing of these is shown in Table 3, in which the first column data presents the fold change against control, the second column cites the gene symbol, the third column cites the Genbank Accession, and the fourth column provides an abridged description of the gene's function.

CCN(CC)CCNc1ccc2ncn3c4ccc(O)cc4c(=O)c1c23 [Symadex™, 5-[[(diethylamino)ethyl]amino]-8-hydroxyimidazo[4,5,1-de]-acridine-6-one]
Mean fold change over control: GGH (NM_003878): −1.96 | Mean fold change over control: MPZL1 (NM_003953): −2.04 | Mean fold change over control: C3AR1 (NM_004054): −15.52 | Mean fold change over control: EIF2S1 (NM_004094): −2.13 | Mean fold change over control: FEN1 (NM_004111): −2.87 | Mean fold change over control: SLC1A2 (NM_004171): −11.21 | Mean fold change over control: SLC9A3 (NM_004174): −15.57 | Mean fold change over control: SNRPD3 (NM_004175): −2.31 | Mean fold change over control: CDKL1 (NM_004196): −8.14 | Mean fold change over control: PTTG1 (NM_004219): −2.43 | Mean fold change over control: SLC22A13 (NM_004256): −11.51 | Mean fold change over control: BAG2 (NM_004282): −2.22 | Mean fold change over control: BAD (NM_004322): −2.08 | Mean fold change over control: ERH (NM_004450): −3.39 | Mean fold change over control: KCNQ2 (NM_004518): −24.13 | Mean fold change over control: MYBPC2 (NM_004533): −21.22 | Mean fold change over control: SPOCK (NM_004598): −6.57 | Mean fold change over control: NMI (NM_004688): −2.41 | Mean fold change over control: CCNB2 (NM_004701): −2.51 | Mean fold change over control: PDCD5 (NM_004708): −2.21 | Mean fold change over control: ZW10 (NM_004724): −2.31 | Mean fold change over control: DDX1 (NM_004939): −2.09 | Mean fold change over control: IBSP (NM_004967): −58.56 | Mean fold change over control: CCL23 (NM_005064): −12.99 | Mean fold change over control: COX6A2 (NM_005205): −23.19 | Mean fold change over control: GJB5 (NM_005268): −62.09 | Mean fold change over control: GPR15 (NM_005290): −80.43 | Mean fold change over control: GPR24 (NM_005297): −13.80 | Mean fold change over control: SULT1E1 (NM_005420): −10.91 | Mean fold change over control: RQCD1 (NM_005444): −2.38 | Mean fold change over control: ZNF265 (NM_005455): −2.03 | Mean fold change over control: STMN1 (NM_005563): −2.41 | Mean fold change over control: LCP2 (NM_005565): −11.85 | Mean fold change over control: VDAC3 (NM_005662): −2.22 | Mean fold change over control: D8S2298E (NM_005671): −1.88 | Mean fold change over control: SCAMP3 (NM_005698): −2.00 | Mean fold change over control: THOC4 (NM_005782): −3.41 | Mean fold change over control: KLRG1 (NM_005810): −24.24 | Mean fold change over control: DSCR1L1 (NM_005822): −9.75 | Mean fold change over control: MSLN (NM_005823): −17.46 | Mean fold change over control: SLC35B1 (NM_005827): −2.23 | Mean fold change over control: CD5L (NM_005894): −13.25 | Mean fold change over control: MCM6 (NM_005915): −1.97 | Mean fold change over control: MCM7 (NM_005916): −2.69 | Mean fold change over control: CD164 (NM_006016): −2.14 | Mean fold change over control: DLEU2 (NM_006021): −3.39 | Mean fold change over control: C10ORF7 (NM_006023): −2.11 | Mean fold change over control: NFATC1 (NM_006162): −16.69 | Mean fold change over control: TIMM23 (NM_006327): −2.02 | Mean fold change over control: PPIH (NM_006347): −2.49 | Mean fold change over control: SYNCRIP (NM_006372): −2.23 | Mean fold change over control: SSSCA1 (NM_006396): −2.20 | Mean fold change over control: RNASEH2A (NM_006397): −2.31 | Mean fold change over control: SIVA (NM_006427): −2.78 | Mean fold change over control: USP16 (NM_006447): −66.26 | Mean fold change over control: PAICS (NM_006452): −2.03 | Mean fold change over control: RPC62 (NM_006468): −2.22 | Mean fold change over control: PIR51 (NM_006479): −3.73 | Mean fold change over control: FARS1 (NM_006567): −2.11 | Mean fold change over control: RBBP9 (NM_006606): −8.81 | Mean fold change over control: NMU (NM_006681): −2.12 | Mean fold change over control: U2AF1 (NM_006758): −1.99 | Mean fold change over control: PRSS21 (NM_006799): −22.21 | Mean fold change over control: KIF2C (NM_006845): −2.52 | Mean fold change over control: CENTA1 (NM_006869): −19.89 | Mean fold change over control: TRH (NM_007117): −8.14 | Mean fold change over control: ZNF258 (NM_007167): −2.66 | Mean fold change over control: DUSP12 (NM_007240): −2.18 | Mean fold change over control: HSGT1 (NM_007265): −2.08 | Mean fold change over control: DTYMK (NM_012145): −3.07 | Mean fold change over control: TPSD1 (NM_012217): −13.71 | Mean fold change over control: TFEC (NM_012252): −20.30 | Mean fold change over control: RAD54B (NM_012415): −2.04 | Mean fold change over control: SPO11 (NM_012444): −14.75 | Mean fold change over control: TIMM10 (NM_012456): −2.23 | Mean fold change over control: UMPK (NM_012474): −1.92 | Mean fold change over control: HMMR (NM_012484): −2.94 | Mean fold change over control: DNAJD1 (NM_013238): −2.24 | Mean fold change over control: TAC3 (NM_013251): −12.26 | Mean fold change over control: RACGAP1 (NM_013277): −2.31 | Mean fold change over control: ALG5 (NM_013338): −2.71 | Mean fold change over control: ANAPC4 (NM_013367): −1.92 | Mean fold change over control: NRG1 (NM_013956): −17.54 | Mean fold change over control: SLC27A6 (NM_014031): −18.72 | Mean fold change over control: MRPL13 (NM_014078): −2.16 | Mean fold change over control: TMEM4 (NM_014255): −2.21 | Mean fold change over control: PLK4 (NM_014264): −2.39 | Mean fold change over control: ITGB3BP (NM_014288): −2.73 | Mean fold change over control: SULT4A1 (NM_014351): −293.18 | Mean fold change over control: ZNRD1 (NM_014596): −2.17 | Mean fold change over control: MEA (NM_014623): −2.39 | Mean fold change over control: DCLRE1A (NM_014881): −3.14 | Mean fold change over control: KIAA0089 (NM_015141): −7.23 | Mean fold change over control: RCOR1 (NM_015156): −7.09 | Mean fold change over control: ARL6IP (NM_015161): −2.29 | Mean fold change over control: EGFL6 (NM_015507): −28.71 | Mean fold change over control: GMNN (NM_015895): −2.81 | Mean fold change over control: MRPL11 (NM_016050): −2.97 | Mean fold change over control: MYO15A (NM_016239): −50.59 | Mean fold change over control: DNAJB11 (NM_016306): −2.15 | Mean fold change over control: POLR3K (NM_016310): −2.24 | Mean fold change over control: NR2E3 (NM_016346): −14.89 | Mean fold change over control: WWOX (NM_016373): −2.07 | Mean fold change over control: RNF141 (NM_016422): −2.29 | Mean fold change over control: POLA (NM_016937): −1.88 | Mean fold change over control: PDE11A (NM_016953): −16.85 | Mean fold change over control: MRPL39 (NM_017446): −2.20 | Mean fold change over control: LIMS2 (NM_017980): −57.61 | Mean fold change over control: FAIM (NM_018147): −3.32 | Mean fold change over control: LPAAT-E (NM_018361, first entry): −11.94 | Mean fold change over control: LPAAT-E (NM_018361, second entry): −2.40 | Mean fold change over control: SIAT7A (NM_018414): −11.76 | Mean fold change over control: LRP1B (NM_018557): −15.01 | Mean fold change over control: TCP11 (NM_018679): −9.82 | Mean fold change over control: BCAP29 (NM_018844): −2.17 | Mean fold change over control: GDAP1 (NM_018972): −2.44 | Mean fold change over control: ROBO4 (NM_019055): −11.95 | Mean fold change over control: POLE4 (NM_019896): −2.04 | Mean fold change over control: SARA1 (NM_020150): −2.14 | Mean fold change over control: RAD18 (NM_020165): −2.28 | Mean fold change over control: MRPL1 (NM_020236): −2.02 | Mean fold change over control: NUP107 (NM_020401): −2.68 | Mean fold change over control: KCNJ12 (NM_021012): −15.93 | Mean fold change over control: MRPL23 (NM_021134): −2.29 | Mean fold change over control: ATP2B3 (NM_021949): −9.43 | Mean fold change over control: NUCKS (NM_022731): −2.02 | Mean fold change over control: MIS12 (NM_024039): −2.20 | Mean fold change over control: SUV39H2 (NM_024670): −2.33 | Mean fold change over control: TXNDC (NM_030755): −2.13 | Mean fold change over control: PHAX (NM_032177): −2.17 | Mean fold change over control: PCDH7 (NM_032457): −19.65 | Mean fold change over control: GPR54 (NM_032551): −2.56 | Mean fold change over control: PHF5A (NM_032758): −2.95 | Mean fold change over control: SYNE1 (NM_033071): −1481.77 | Mean fold change over control: SLC7A13 (NM_138817): −27.75 | Mean fold change over control: BBS2 (T26496): −23.65 | number of down-regulated genes significantly represented in both cell types (array of 55,000 gene fragment accessions): 271
